# Measured values as given in publication PMC7156458, “Synthetic biology based construction of biological activity-related library of fungal decalin-containing diterpenoid pyrones” (Nature Communications, 2020).
# “And” between values parts separate entries of the source, which are not always exact repeats. Equal values may be shown once. Read-outs that look alike come from different tables or passages of the source.
# Assays:
# Type in all cases: cell-based
# [1] = cytotoxicity in Drosophila DL1 cells; conditions: Drosophila, DL1 cells (embryonic macrophage-derived), DL1 cells
# Method: (§1) We screened the DDPs on the Drosophila assay system for cytotoxicity, inhibitory activity of innate immune signalling and insecticidal activity. The cytotoxicity of the DDPs was evaluated using two cell lines, embryonic macrophage-derived DL1 cells[58]–[60] and larval blood cell-derived l(2)mbn cells, and their IC50 values are listed in Supplementary Table 23.
# DL1 cells = experiment: cytotoxicity in Drosophila DL1 cells; conditions: DL1 cells; for IC50: Drosophila melanogaster, cytotoxicity
# Method: as §1
# [2] = cytotoxicity in Drosophila l(2)mbn cells; conditions: Drosophila, l(2)mbn cells (larval blood cell-derived)
# Method: as §1
# l(2)mbn cells = experiment: cytotoxicity in Drosophila l(2)mbn cells; conditions: for Luminescence Raw1: replicate 1; for Luminescence Raw2: replicate 2; for IC50: Drosophila melanogaster, cytotoxicity
# Method: as §1
# [3] = tested on: human immunodeficiency virus-1 (HIV-1); experiment: anti-HIV MAGI assay; conditions: Human immunodeficiency virus 1, MAGI, anti-HIV
# Description: We examined the inhibitory activities of DDPs against various species of bacteria (both gram-negative and gram-positive bacteria), fungi and viruses. […] In contrast, preliminary screening of the DDPs for anti-viral agents with hepatitis B virus (HBV), measles virus (MV), Epstein-Barr virus (EBV), herpes simplex virus (HSV) and human immunodeficiency virus-1 (HIV-1) indicated their selective inhibition of HIV.
# MAGI cells = experiment: cytotoxicity in the anti-HIV assay (CC50); conditions: for Cytotoxicity: single determinations
# [4] = replicate 1, relative to DMSO 1%, read-out: % viability, viability 1
# [5] = replicate 2, relative to DMSO 1%, read-out: % viability, viability 2
# [6] = average of two replicates, read-out: IC50 Average
# [7] = replicate 1, read-out: IC50 (1)
# [8] = replicate 2, read-out: IC50 (2)
# [9] = average of numeric determinations, read-out: Avg. EC50
smiles,measurement,setting,value
C=C1CC[C@H]2[C@]3(C)C[C@H](C=C(C)C)O[C@H]3CC[C@]2(C)[C@@H]1Cc1c(OC)oc(CO)c(C)c1=O [Compound 18],viability at 0.04 µM,[1]; [4],95.6%
same,viability at 0.04 µM,[1]; [5],92.1%
same,viability at 0.2 µM,[1]; [4],56.9%
same,viability at 0.2 µM,[1]; [5],64.1%
same,viability at 1 µM,[1]; [4],7.49%
same,viability at 1 µM,[1]; [5],7.12%
same,viability at 4 µM,[1]; [4],4.95%
same,viability at 4 µM,[1]; [5],5.08%
same,viability at 10 µM,[1]; [4],5.18%
same,viability at 10 µM,[1]; [5],6.3%
same,viability at 20 µM,[1]; [4],3.9%
same,viability at 20 µM,[1]; [5],5.16%
same,Luminescence Raw1,"DL1 cells; 0.04 µM, replicate 1",1968545
same,Luminescence Raw2,"DL1 cells; 0.04 µM, replicate 2",1896774
same,Luminescence Raw1,"DL1 cells; 0.2 µM, replicate 1",1171179
same,Luminescence Raw2,"DL1 cells; 0.2 µM, replicate 2",1320836
same,Luminescence Raw1,"DL1 cells; 1 µM, replicate 1",154319
same,Luminescence Raw2,"DL1 cells; 1 µM, replicate 2",146747
same,Luminescence Raw1,"DL1 cells; 4 µM, replicate 1",102038
same,Luminescence Raw2,"DL1 cells; 4 µM, replicate 2",104562
same,Luminescence Raw1,"DL1 cells; 10 µM, replicate 1",106725
same,Luminescence Raw2,"DL1 cells; 10 µM, replicate 2",129801
same,Luminescence Raw1,"DL1 cells; 20 µM, replicate 1",80404
same,Luminescence Raw2,"DL1 cells; 20 µM, replicate 2",106364
same,IC50,DL1 cells; [6],0.254 µM
same,IC50,"DL1 cells; average±SEM, read-out: IC50",0.25 ± 0.02 µM
same,IC50,DL1 cells; [7],0.236 µM
same,IC50,DL1 cells; [8],0.272 µM
same,viability at 0.04 µM,[2]; [4],116%
same,viability at 0.04 µM,[2]; [5],96.2%
same,viability at 0.2 µM,[2]; [4],131%
same,viability at 0.2 µM,[2]; [5],115%
same,viability at 1 µM,[2]; [4],108%
same,viability at 1 µM,[2]; [5],131%
same,viability at 4 µM,[2]; [4],64.8%
same,viability at 4 µM,[2]; [5],91.8%
same,viability at 10 µM,[2]; [4],7.4%
same,viability at 10 µM,[2]; [5],8.02%
same,viability at 20 µM,[2]; [4],9.23%
same,viability at 20 µM,[2]; [5],8.3%
same,Luminescence Raw1,l(2)mbn cells; 0.04 µM,2968023
same,Luminescence Raw2,l(2)mbn cells; 0.04 µM,2468099
same,Luminescence Raw1,l(2)mbn cells; 0.2 µM,3357960
same,Luminescence Raw2,l(2)mbn cells; 0.2 µM,2956480
same,Luminescence Raw1,l(2)mbn cells; 1 µM,2768193
same,Luminescence Raw2,l(2)mbn cells; 1 µM,3359403
same,Luminescence Raw1,l(2)mbn cells; 4 µM,1663102
same,Luminescence Raw2,l(2)mbn cells; 4 µM,2355206
same,Luminescence Raw1,l(2)mbn cells; 10 µM,190041
same,Luminescence Raw2,l(2)mbn cells; 10 µM,205906
same,Luminescence Raw1,l(2)mbn cells; 20 µM,236915
same,Luminescence Raw2,l(2)mbn cells; 20 µM,213117
same,IC50,l(2)mbn cells; [6],6 µM
same,IC50,"l(2)mbn cells; average±SEM, read-out: IC50",6 ± 1.09 µM
same,IC50,l(2)mbn cells; [7],4.92 µM
same,IC50,l(2)mbn cells; [8],7.09 µM
same,EC50,"[3]; MAGI assay, read-out: EC50",< 0.2 µM
same,EC50,[3]; [9],0.643 µM
same,Cytotoxicity,MAGI cells,>10 µM
C=C1CCC2C(C)(CC(=O)C=C(C)C)C(O)CCC2(C)C1Cc1c(OC)oc(CO)c(C)c1=O (stereo not shown) [Compound 19],viability at 0.04 µM,[1]; [4],92.6%
same,viability at 0.04 µM,[1]; [5],93.4%
same,viability at 0.2 µM,[1]; [4],78.6%
same,viability at 0.2 µM,[1]; [5],86.7%
same,viability at 1 µM,[1]; [4],92.1%
same,viability at 1 µM,[1]; [5],87%
same,viability at 4 µM,[1]; [4],86.9%
same,viability at 4 µM,[1]; [5],80.7%
same,viability at 10 µM,[1]; [4],52.8%
same,viability at 10 µM,[1]; [5],59.6%
same,viability at 20 µM,[1]; [4],15.3%
same,viability at 20 µM,[1]; [5],22.3%
same,Luminescence Raw1,"DL1 cells; 0.04 µM, replicate 1",1907594
same,Luminescence Raw2,"DL1 cells; 0.04 µM, replicate 2",1924545
same,Luminescence Raw1,"DL1 cells; 0.2 µM, replicate 1",1618356
same,Luminescence Raw2,"DL1 cells; 0.2 µM, replicate 2",1786055
same,Luminescence Raw1,"DL1 cells; 1 µM, replicate 1",1896774
same,Luminescence Raw2,"DL1 cells; 1 µM, replicate 2",1792907
same,Luminescence Raw1,"DL1 cells; 4 µM, replicate 1",1789301
same,Luminescence Raw2,"DL1 cells; 4 µM, replicate 2",1663075
same,Luminescence Raw1,"DL1 cells; 10 µM, replicate 1",1087156
same,Luminescence Raw2,"DL1 cells; 10 µM, replicate 2",1227796
same,Luminescence Raw1,"DL1 cells; 20 µM, replicate 1",315492
same,Luminescence Raw2,"DL1 cells; 20 µM, replicate 2",459001
same,IC50,DL1 cells; [6],10.6 µM
same,IC50,"DL1 cells; average±SEM, read-out: IC50",10.6 ± 0.23 µM
same,IC50,DL1 cells; [7],10.3 µM
same,IC50,DL1 cells; [8],10.8 µM
same,viability at 0.04 µM,[2]; [4],154%
same,viability at 0.04 µM,[2]; [5],105%
same,viability at 0.2 µM,[2]; [4],131%
same,viability at 0.2 µM,[2]; [5],120%
same,viability at 1 µM,[2]; [4],128%
same,viability at 1 µM,[2]; [5],131%
same,viability at 4 µM,[2]; [4],125%
same,viability at 4 µM,[2]; [5],116%
same,viability at 10 µM,[2]; [4],104%
same,viability at 10 µM,[2]; [5],136%
same,viability at 20 µM,[2]; [4],115%
same,viability at 20 µM,[2]; [5],117%
same,Luminescence Raw1,l(2)mbn cells; 0.04 µM,3944169
same,Luminescence Raw2,l(2)mbn cells; 0.04 µM,2684872
same,Luminescence Raw1,l(2)mbn cells; 0.2 µM,3351106
same,Luminescence Raw2,l(2)mbn cells; 0.2 µM,3081647
same,Luminescence Raw1,l(2)mbn cells; 1 µM,3286175
same,Luminescence Raw2,l(2)mbn cells; 1 µM,3371307
same,Luminescence Raw1,l(2)mbn cells; 4 µM,3215834
same,Luminescence Raw2,l(2)mbn cells; 4 µM,2985337
same,Luminescence Raw1,l(2)mbn cells; 10 µM,2665756
same,Luminescence Raw2,l(2)mbn cells; 10 µM,3480969
same,Luminescence Raw1,l(2)mbn cells; 20 µM,2956119
same,Luminescence Raw2,l(2)mbn cells; 20 µM,3004455
same,IC50,"l(2)mbn cells; average±SEM, read-out: IC50",> 20 µM
same,EC50,[3]; [9],1.6 µM
same,Cytotoxicity Avg.,MAGI cells; average of numeric determinations,6.013 µM
same,Cytotoxicity,MAGI cells,6.158 µM and 7.239 µM and 4.642 µM
